The text below walks through data of US20100113368A1, “CHOLESTEROL LOWERING PROTEIN HYDROLYSATES” (priority 2007, published 2010).

Test [1] relates to hypercholesterolemic rat model. Briefly: Hypocholesterolemic effects of R-P-P-R, K-P-P, L-arginine and Ezetimib in Fisher F344 rats (Example 6). The test is classed as in vivo. To be noted: for Effect on non-HDL cholesterol (VLDL-cholesterol+LDL-cholesterol) as compared to the control group / Effect on plasma HDL-cholesterol as compared to the control group / Effect on plasma total cholesterol as compared to the control group: in words, 8 days orally, 100 mg/kg BW (Ezetimib 1 mg/kg BW); for HDL cholesterol (plasma) / Total cholesterol (plasma) / non HDL cholesterol (plasma): male F344 rats on atherogenic diet, orally for 8 days, peptides and L-arginine 100 mg/kg BW, Ezetimib 1 mg/kg BW, mean ± SD; for non HDL cholesterol (plasma): difference between total and HDL cholesterol. The method, then: In this experiment the effects of the chemically synthesized peptides R-P-P-R and K-P-P, the free amino acid L-arginine and the potent and selective cholesterol absorption inhibitor Ezetimib (Ezetrol, MSD Germany) were tested on plasma cholesterol levels in the hypercholesterolemic rat model.
Male Fisher rats (F344) from Charles River (Sulzfeld, Germany), weighing 65-96 g were housed individually with free access to water and feed, with an alternating 12-hour light-dark cycle. The animals were fed a rodent atherogenic diet high in cholesterol and fat similar to the procedure described in Example 5. After 2 weeks of adaptation to the diet the rats were randomized according to body weight into five experimental groups of 10 animals each. The five groups were treated orally every morning for 8 days with either water (control group) or with R-P-P-R, K-P-P and L-arginine at a dose of 100 mg/kg body weight (BW) or with Ezetimib at a dose of 1 mg/kg BW while continuing the aetherogenic diet. There was no difference in feed consumption over the whole experiment. The day before the last administration, all animals were dosed orally in the evening and deprived of food for the last 6 hours but allowed free access to water. At day 8 the fasted rats were treated again orally in the morning and after two hours the animals were sacrificed by withdrawing blood from the vena Cava under Isoflurane anesthesia. Blood was collected into tubes containing EDTA as an anticoagulant. Plasma was prepared from the blood by immediate centrifugation at 1600 g for 10 minutes at 4° C. Assays of plasma cholesterol and HDL-cholesterol (precipitation method) were determined enzymatically on a Hitachi 912 automatic analyzer (Roche Diagnostica, Switzerland). Non-HDL cholesterol was calculated by difference between total cholesterol and HDL cholesterol. All data are expressed as means±standard deviation (SD) for animals in each diet group, with n being the number of rats.

Test [2] deals with hypercholesterolemic rat model. Briefly: Hypocholesterolemic effects of peptide R-P-P-R-S in Fisher F344 rats (Example 5). The test is classed as in vivo. The note with it: male F344 rats on atherogenic diet, 100 mg/kg BW orally for 7 days, mean ± SD. The method, then:
In this experiment the effects of the chemically synthesized […] R-P-P-R-S was tested on plasma cholesterol levels in the hypercholesterolemic rat model.
In short male Fisher rats (F344) from Charles River (Sulzfeld, Germany), weighing 65-96 g were housed individually with free access to water and feed, with an alternating 12-hour light-dark cycle. The animals were fed a rodent atherogenic diet high in cholesterol and fat for the 2 weeks preceding the treatment. The macro-nutrient composition of the diet was as follows (g/100 g anhydrous mix): protein 20.8; fiber 4.2; fat 15; carbohydrate 48. The diet also contained 1.25 wt % cholesterol, 0.5 wt % sodium cholate and a standard vitamin and mineral mix, prepared according to rat nutritional requirements. The main fats consisted of cacoa butter (7.5 wt %) and soja oil (4.35 wt %). After 2 weeks of adaptation to the diet the rats were randomized according to body weight into two experimental groups of 10 animals. The two groups were treated orally every morning for 7 days with either water (control group) or peptide R-P-P-R-S, at a dose of 100 mg/kg body weight (BW) while continuing the aetherogenic diet. There was no difference in feed consumption over the whole experiment. The day before the last administration, all animals were dosed orally in the evening and deprived of food overnight (14 hours) but allowed free access to water. At day 7 the fasted rats were treated again orally in the morning and after two hours the animals were sacrificed by withdrawing blood from the vena Cava under Isoflurane anesthesia. Blood was collected into tubes containing EDTA as an anticoagulant. […] Assays of plasma cholesterol and HDL-cholesterol (precipitation method) were determined enzymatically on a Hitachi 912 automatic analyzer (Roche Diagnostica, Switzerland). Non-HDL cholesterol was calculated by difference between total cholesterol and HDL cholesterol. […] All data are expressed as means±standard deviation (SD) for animals in each diet group, with n being the number of rats. […]

Marks after values point to notes of the source that are not given here.

Regarding `O=C1[C@H](CC[C@H](O)c2ccc(F)cc2)[C@@H](c2ccc(O)cc2)N1c1ccc(F)cc1` [Ezetimib, reference compound], in test [1], the “Effect on non-HDL cholesterol (VLDL-cholesterol+LDL-cholesterol) as compared to the control group” value is “prominent effects”, the “Effect on plasma HDL-cholesterol as compared to the control group” value was “prominent effects”, the “Effect on plasma total cholesterol as compared to the control group” value is reported as “prominent effects” and the “HDL cholesterol (plasma)” value is 0.51 ± 0.06 mmol/L. Besides, in test [1], the “Total cholesterol (plasma)” value was 4.70 ± 0.93 mmol/L and the “non HDL cholesterol (plasma)” value was 4.19 ± 0.90 mmol/L.
Regarding `N=C(N)NCCC[C@H](N)C(=O)O` [L-arginine, reference compound], in test [1], the “Effect on non-HDL cholesterol (VLDL-cholesterol+LDL-cholesterol) as compared to the control group” value was “had no effect”, the “Effect on plasma HDL-cholesterol as compared to the control group” value was “had no effect”, the “Effect on plasma total cholesterol as compared to the control group” value was “had no effect” and the “HDL cholesterol (plasma)” value turned out to be 0.33 ± 0.05 mmol/L. Besides, in test [1], the “Total cholesterol (plasma)” value was 7.66 ± 1.08 mmol/L and the “non HDL cholesterol (plasma)” value is reported as 7.32 ± 1.08 mmol/L.
On to K-P-P [KPP], for which, in test [1], the “Effect on non-HDL cholesterol (VLDL-cholesterol+LDL-cholesterol) as compared to the control group” value was “tended to lowered”, the “Effect on plasma HDL-cholesterol as compared to the control group” value is “significantly increased”, the “Effect on plasma total cholesterol as compared to the control group” value is recorded as “tended to lowered” and the “HDL cholesterol (plasma)” value amounted to 0.37 ± 0.04 mmol/L. In addition, in test [1], the “Total cholesterol (plasma)” value is 6.82 ± 1.42 mmol/L and the “non HDL cholesterol (plasma)” value is on record as 6.45 ± 1.44 mmol/L.
Take “R-P-P-R (RPPR) [chemically synthesized peptide Arg-Pro-Pro-Arg]”: in test [1], the “Effect on non-HDL cholesterol (VLDL-cholesterol+LDL-cholesterol) as compared to the control group” value was “significantly lowered”, the “Effect on plasma HDL-cholesterol as compared to the control group” value is recorded as “tended to increase”, the “Effect on plasma total cholesterol as compared to the control group” value is on record as “significantly lowered” and the “HDL cholesterol (plasma)” value was determined as 0.35 ± 0.04 mmol/L. Further, in test [1], the “Total cholesterol (plasma)” value is reported as 5.28 ± 0.81 mmol/L and the “non HDL cholesterol (plasma)” value was found to be 4.94 ± 0.81 mmol/L.
Consider “R-P-P-R-S (RPPRS) [chemically synthesized peptide Arg-Pro-Pro-Arg-Ser]”, for which, in test [2] (fasted, 2 h after last dose), the “HDL cholesterol (plasma)” value is recorded as 0.36 ± 0.10^b mmol/L and the “Total cholesterol (plasma)” value is 2.9 ± 0.4^b mmol/L. Moreover, the “non HDL cholesterol (plasma)” value in test [2] (difference between total and HDL cholesterol) is given as 2.5 ± 0.5^b mmol/L.
